In ChEMBL document CHEMBL1137469, “(3R,4S)-4-(2,4,5-Trifluorophenyl)-pyrrolidin-3-ylamine inhibitors of dipeptidyl peptidase IV: synthesis, in vitro, in vivo, and X-ray crystallographic characterization” (Bioorg Med Chem Lett, 2007):

Tests used:
[1] = target: Dipeptidyl peptidase 4 (Homo sapiens, UniProt P27487)
[2] = target: Dipeptidyl peptidase 2 (Homo sapiens, UniProt Q9UHL4); assay: Inhibition of human recombinant DPP2
[3] = Oral bioavailability in rat plasma; format: ADME, organism-based
[4] = target: T1, Dipeptidyl peptidase 3 (Homo sapiens, UniProt Q9NY33); assay: Inhibition of DPP3
T1 sequence (Q9NY33 whole entry): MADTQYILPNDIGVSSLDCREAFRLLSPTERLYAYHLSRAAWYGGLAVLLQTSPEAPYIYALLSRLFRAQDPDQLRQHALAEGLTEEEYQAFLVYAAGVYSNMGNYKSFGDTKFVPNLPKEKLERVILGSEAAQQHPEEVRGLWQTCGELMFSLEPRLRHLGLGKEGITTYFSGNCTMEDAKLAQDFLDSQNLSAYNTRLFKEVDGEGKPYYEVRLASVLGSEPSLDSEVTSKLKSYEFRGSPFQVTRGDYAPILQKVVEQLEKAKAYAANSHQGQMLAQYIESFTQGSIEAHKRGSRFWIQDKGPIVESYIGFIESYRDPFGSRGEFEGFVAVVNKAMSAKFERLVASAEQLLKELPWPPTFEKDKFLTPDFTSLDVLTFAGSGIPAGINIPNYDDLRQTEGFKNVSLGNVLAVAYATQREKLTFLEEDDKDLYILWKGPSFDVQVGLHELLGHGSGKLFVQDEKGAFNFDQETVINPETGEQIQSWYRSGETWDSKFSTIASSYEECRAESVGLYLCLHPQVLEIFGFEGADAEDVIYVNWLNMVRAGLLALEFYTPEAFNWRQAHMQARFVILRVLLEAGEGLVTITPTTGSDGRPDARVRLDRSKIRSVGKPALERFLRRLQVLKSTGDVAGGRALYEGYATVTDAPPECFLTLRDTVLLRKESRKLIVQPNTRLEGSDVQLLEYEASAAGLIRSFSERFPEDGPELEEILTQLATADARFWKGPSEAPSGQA

[5] = Plasma clearance in rat; format: ADME, organism-based
[6] = Volume of distribution at steady state in rat plasma; format: ADME, organism-based; conditions: read-out: Vdss
[7] = Plasma clearance in dog; format: ADME, organism-based, Canis lupus familiaris
[8] = Percent of unbound ligand in dog plasma; format: ADME, cell-free, Canis lupus familiaris
[9] = Half life in po dosed rat plasma; format: ADME, organism-based
[10] = Half life in iv dosed rat plasma; format: ADME, organism-based
[11] = Volume of distribution at steady state in dog plasma; format: ADME, organism-based, Canis lupus familiaris; conditions: read-out: Vdss
[12] = Half life in iv dosed dog plasma; format: ADME, organism-based, Canis lupus familiaris

Chain of Dipeptidyl peptidase 4 (P27487 whole entry): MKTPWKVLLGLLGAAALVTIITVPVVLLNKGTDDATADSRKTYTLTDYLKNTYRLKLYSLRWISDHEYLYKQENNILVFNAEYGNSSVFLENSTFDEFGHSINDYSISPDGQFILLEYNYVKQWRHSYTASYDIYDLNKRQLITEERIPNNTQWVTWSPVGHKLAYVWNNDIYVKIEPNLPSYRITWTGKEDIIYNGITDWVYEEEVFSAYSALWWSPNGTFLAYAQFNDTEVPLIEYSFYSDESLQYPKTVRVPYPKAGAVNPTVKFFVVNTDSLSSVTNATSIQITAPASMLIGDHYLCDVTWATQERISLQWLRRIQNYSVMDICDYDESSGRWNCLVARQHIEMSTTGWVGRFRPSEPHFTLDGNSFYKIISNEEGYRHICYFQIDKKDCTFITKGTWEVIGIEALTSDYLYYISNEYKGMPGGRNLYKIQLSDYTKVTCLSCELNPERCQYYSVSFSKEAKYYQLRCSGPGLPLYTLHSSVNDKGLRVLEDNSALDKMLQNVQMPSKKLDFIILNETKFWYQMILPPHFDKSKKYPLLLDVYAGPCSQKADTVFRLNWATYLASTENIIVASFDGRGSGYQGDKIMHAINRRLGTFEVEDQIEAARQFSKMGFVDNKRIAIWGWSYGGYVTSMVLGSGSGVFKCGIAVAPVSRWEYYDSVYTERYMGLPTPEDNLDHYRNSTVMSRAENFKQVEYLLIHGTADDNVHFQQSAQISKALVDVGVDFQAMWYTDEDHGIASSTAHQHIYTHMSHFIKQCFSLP

SMILES | IC50 [1] [µM] | other results
N[C@H]1CN(c2cnc3ccccc3n2)C[C@@H]1c1ccccc1 | > 3 | –
N[C@H]1CN(c2ccc3ccccc3n2)C[C@@H]1c1ccccc1 | > 3 | –
N#Cc1cccnc1N1C[C@H](c2ccccc2)[C@@H](N)C1 | > 3 | –
N[C@H]1CN(c2cc(-c3ccccc3Cl)ncn2)C[C@@H]1c1ccccc1 | > 3 | –
N[C@H]1CN(c2cc(-c3ccccc3)ncn2)C[C@@H]1c1cc(F)c(F)cc1F | – | IC50 [2]: 18 µM
N[C@H]1CN(c2cc(-c3cccc(F)c3)ncn2)C[C@@H]1c1cc(F)c(F)cc1F | – | IC50 [2]: 15 µM
COc1ccc(-c2cc(N3C[C@H](c4cc(F)c(F)cc4F)[C@@H](N)C3)ncn2)cn1 | – | bioavailability [3]: 57%; IC50 [4]: > 30 µM; clearance [5]: 4.4 mL/min/kg; Vd [6]: 0.67 L/kg; clearance [7]: 4.8 mL/min/kg; fraction unbound [8]: 0.17; IC50 [2]: 19 µM; half-life [9]: 198 min; half-life [10]: 168 min; Vd [11]: 1.9 L/kg; half-life [12]: 306 min
Cn1cnc2c(N3C[C@H](c4ccccc4)[C@@H](N)C3)ncnc21 | > 3 | –
N[C@H]1CN(c2cc(-c3ccc(O)cc3)ncn2)C[C@@H]1c1ccccc1 | > 3 | –
N[C@H]1CN(c2cc(Cl)nc(-c3ccccc3)n2)C[C@@H]1c1ccccc1 | > 3 | –
N[C@H]1CN(c2cc(-c3ccc(Cl)cc3)ncn2)C[C@@H]1c1ccccc1 | > 3 | –
CC(=O)c1ccc(N2C[C@H](c3ccccc3)[C@@H](N)C2)nc1 | > 3 | –
CC(C)c1ccc([C@@H]2CN(c3nc4c(cc3F)c(=O)c(C(=O)O)cn4C3CC3)C[C@@H]2N)cc1 (relative stereo) | > 3 | –
COC(=O)c1ccc([C@@H]2CN(c3nc4c(cc3F)c(=O)c(C(=O)O)cn4C3CC3)C[C@@H]2N)cc1 (relative stereo) | > 3 | –
COc1ccc([C@@H]2CN(c3nc4c(cc3F)c(=O)c(C(=O)O)cn4C3CC3)C[C@@H]2N)cc1 (relative stereo) | > 3 | –
CN(C)c1ccc([C@@H]2CN(c3nc4c(cc3F)c(=O)c(C(=O)O)cn4C3CC3)C[C@@H]2N)cc1 (relative stereo) | > 3 | –
N[C@H]1CN(c2nc3c(cc2F)c(=O)c(C(=O)O)cn3C2CC2)C[C@H]1c1ccc(O)cc1 (relative stereo) | > 3 | –
Nc1ccc([C@@H]2CN(c3nc4c(cc3F)c(=O)c(C(=O)O)cn4C3CC3)C[C@@H]2N)cc1 (relative stereo) | > 3 | –
